Target: cytoplasmic dynein 1 (Sus scrofa, UniProt A0A287B9W3)
Assay: microtubule-stimulated ATPase assay
Assay type: biochemical

In the case of N#CC(=C(O)c1ccc(Cl)cc1Cl)c1nc2ccccc2c(=O)[nH]1 [Ciliobrevin A], the IC50 is reported as about 84 µM.
